Source: article PMC5679017 (Journal of medicinal chemistry, 2016)

What was measured:
melanocortin receptors = details: cited from earlier work
mice [1] = details: 2 nmol dose; 3, 4, 5, 6, 16 and 24 hours after administration; cited from earlier work
mice [2] = assay: Cannula placement validation with hPYY, food intake; type: in vivo, mouse; details: 2.5 μg human PYY3-36, validated cannulated mice (saline: 0.42 ±0.07 g)

Row | Compound | binding affinity at the melanocortin receptors (reported) (melanocortin receptors) | food intake after ICV administration (previous study) (mice [1]) | food eaten four hours after administration (mice [2])
1 | CC(=O)N[C@@H](Cc1c[nH]cn1)C(=O)N[C@H](Cc1ccccc1)C(=O)N[C@@H](CCCNC(=N)N)C(=O)N[C@@H](Cc1c[nH]c2ccccc12)C(N)=O [Compound 1, Ac-His-DPhe-Arg-Trp-NH2] | high nanomolar to low micromolar | decrease food intake | –
2 | hPYY: human PYY3-36 (Bachem) used to verify cannula placement | – | – | 1.79 ± 0.13 g
